We go through 4 molecules from patent publication US7858794B2, “Tetrahydroquinoline derivatives” (N.V. Organon, priority 2002, dated 2010).

This experiment deals with T1, human FSH receptor (Homo sapiens, UniProt P23945).
T1 construct: expressed in transfected cells; host or cells: Chinese Hamster Ovary (CHO) cells
T1 sequence (P23945 18-695): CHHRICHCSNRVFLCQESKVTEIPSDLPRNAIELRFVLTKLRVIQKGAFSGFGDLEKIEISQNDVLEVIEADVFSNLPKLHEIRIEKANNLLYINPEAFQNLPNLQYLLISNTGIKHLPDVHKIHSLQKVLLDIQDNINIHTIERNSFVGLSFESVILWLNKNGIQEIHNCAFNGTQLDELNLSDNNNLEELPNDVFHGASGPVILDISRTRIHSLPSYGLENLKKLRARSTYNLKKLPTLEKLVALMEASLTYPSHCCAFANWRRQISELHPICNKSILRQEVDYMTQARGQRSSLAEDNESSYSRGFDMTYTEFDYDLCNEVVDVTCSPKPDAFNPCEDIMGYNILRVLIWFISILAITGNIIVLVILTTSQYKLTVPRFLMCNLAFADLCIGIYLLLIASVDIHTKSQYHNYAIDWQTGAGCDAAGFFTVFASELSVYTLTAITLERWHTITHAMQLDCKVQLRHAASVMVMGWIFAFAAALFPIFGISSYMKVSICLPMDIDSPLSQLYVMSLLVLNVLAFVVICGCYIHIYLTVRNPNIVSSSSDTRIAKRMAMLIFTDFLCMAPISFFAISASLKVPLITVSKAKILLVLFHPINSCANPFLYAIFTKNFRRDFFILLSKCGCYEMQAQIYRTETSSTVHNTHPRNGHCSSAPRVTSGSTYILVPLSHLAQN
Description: CHO-FSH in vitro bioactivity (CRE-luciferase reporter, agonistic or antagonistic set-up). It counts as cell-based. Particulars: CHO cells stably transfected with human FSH receptor and CRE-luciferase; either agonistic or antagonistic (rec-hFSH, 10 mU/ml) assay set-up or both / at least one of the assays; read-out: EC50 (IC50). The protocol:
FSH activity of compounds were tested in Chinese Hamster Ovary (CHO) cells stably transfected with the human FSH receptor and cotransfected with a cAMP responsive element (CRE)/promotor directing the expression of a firefly luciferase reporter gene. Binding of ligand to the Gs-coupled FSH receptor will result in an increase of cAMP, which in turn will induce an increased transactivation of the luciferase reporter construct. To test antagonistic properties recombinant FSH in a concentration that induces approximately 80% of the maximal stimulation of cAMP accumulation in the absence of test compound was added (rec-hFSH, 10 mU/ml). The luciferase signal was quantified using a luminescence counter. For test compounds, EC50 values (concentration of test compound causing half-maximal (50%) stimulation or reduction) were calculated For that purpose the software program GraphPad PRISM, version 3.0 (GraphPad software Inc., San Diego) was used.

Usually EC50 stands for the concentration that produces a half-maximal response.

For `CC(=O)N1c2cc(N(C)C)c(NC(=O)C3CCCC3)cc2C(C)(c2ccccc2)CC1(C)C` (stereo not shown) [Example 37, Cyclopentanecarboxylic acid (1-acetyl-7-dimethylamino-2,2,4-trimethyl-4-phenyl-1,2,3,4-tetrahydro-quinolin-6yl)-amide], the EC50 is less than 100 nM. Take `CC(=O)N1c2cc(OCC(=O)N(C)C)c(NC(=O)c3ccc(-c4ccccc4)cc3)cc2C(C)(c2ccccc2)CC1(C)C` (stereo not shown) [Example 16, Biphenyl-4-carboxylic acid (1-acetyl-7-dimethylcarbamoylmethoxy-2,2,4-trimethyl-4-phenyl-1,2,3,4-tetrahydro-quinolin-6-yl)-amide]: the EC50 is less than 100 nM. `CC(=O)N1c2cc(N(C)C)c(NC(=O)C(C)C)cc2C(C)(c2ccccc2)CC1(C)C` (stereo not shown) [Example 38, N-(1-Acetyl-7-dimethylamino-2,2,4-trimethyl-4-phenyl-1,2,3,4-tetrahydro-quinolin-6-yl)-isobutyramide]: the EC50 is less than 100 nM. In the case of `CCNc1cc2c(cc1NC(=O)c1ccc(-c3ccccc3)cc1)C(C)(c1ccccc1)CC(C)(C)N2C(C)=O` (stereo not shown) [Example 41, Biphenyl-4-carboxylic acid (1-acetyl-7-ethylamino-2,2,4-trimethyl-4-phenyl-1,2,3,4-tetrahydro-quinolin-6-yl)amide], the EC50 was less than 100 nM.
